Experimental data from patent US7868026B2, “Therapeutic compounds” (Pfizer Inc., priority 2005, dated 2011).
Like-named read-outs stand apart in the source and are kept apart here.

Assays:
Assay type in all cases: biochemical
[1] = biological target: T1, CYP3A4 (Homo sapiens, UniProt P08684); assay: Determination of IC50 against CYP3A4 by measurement of inhibition of testosterone metabolism (human liver microsomes, 6-β-OH-testosterone by LC-MS/MS); set-up: 0.1 mg/mL human liver microsomes; conditions: read-out: IC50 (Testo.)
T1 sequence (P08684 whole entry): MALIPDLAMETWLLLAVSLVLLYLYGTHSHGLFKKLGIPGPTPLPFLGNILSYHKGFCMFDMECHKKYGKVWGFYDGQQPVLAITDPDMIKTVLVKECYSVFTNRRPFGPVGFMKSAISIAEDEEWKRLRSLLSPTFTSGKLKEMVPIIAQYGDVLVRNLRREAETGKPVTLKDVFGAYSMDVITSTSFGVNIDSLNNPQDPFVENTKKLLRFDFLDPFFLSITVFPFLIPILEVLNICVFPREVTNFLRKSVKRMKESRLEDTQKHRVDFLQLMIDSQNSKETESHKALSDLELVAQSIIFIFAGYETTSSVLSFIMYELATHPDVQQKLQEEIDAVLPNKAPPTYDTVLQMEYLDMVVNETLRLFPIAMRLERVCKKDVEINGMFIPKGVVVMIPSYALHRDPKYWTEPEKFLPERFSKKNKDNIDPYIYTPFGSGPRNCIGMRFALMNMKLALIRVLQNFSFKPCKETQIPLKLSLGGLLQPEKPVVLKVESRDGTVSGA
Procedure, shortened: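 Human liver microsomes (0.1 mg/mL) incubated with 25 μM testosterone and 1 mM NADPH in 100 mM potassium phosphate, pH 7.4, for eight minutes. 6-β-OH-testosterone measured by LC-MS/MS in MRM mode against an internal standard and quantified from a metabolite standard curve.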

[2] = biological target: T1, CYP3A4; assay: Determination of IC50 against CYP3A4 by measurement of inhibition of midazolam metabolism (human liver microsomes, 1-hydroxymidazolam by LC-MS/MS); set-up: 0.1 mg/mL human liver microsomes; conditions: 2 μM midazolam, 0.1 mg/mL human liver microsomes
Procedure, shortened: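 Human liver microsomes (0.1 mg/mL) incubated 8 min with 2 μM midazolam and 1 mM NADPH in 100 mM potassium phosphate, pH 7.4. 1-Hydroxymidazolam quantified by LC-MS/MS (MRM) as peak area ratio to internal standard against a metabolite standard curve.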

[3] = biological target: T1, CYP3A4; assay: Determination of compound Kiapp against recombinant CYP3A4 enzyme (BFC fluorescent substrate)
Procedure, shortened: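 Recombinant CYP3A4 (5.5 or 8 nM, with or without b5 depending on source) pre-incubated with inhibitor ≥30 min at room temperature in 100 mM sodium phosphate pH 7.0, 5 mM TCEP, 2% DMF. Reaction started with 200 uM NADPH and 5 uM BFC; initial fluorescence rates over 5 min fitted to Morrison tight-binding (non-partial) or Szedlacsek (partial) equations for Kiapp.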

[4] = Baculo. enzyme preparation, read-out: Kiapp (BFC, Baculo.)
[5] = Super. enzyme preparation, read-out: Kiapp (BFC, Super.)

| IC50 [1] [nM] | IC50 [2] [nM] | Ki [3, 4] [nM] | Ki [3, 5] [nM] | SMILES |
| --- | --- | --- | --- | --- |
| 45 | 28.5 | 60.1 | 37.7 | CCOc1ccncc1NS(=O)(=O)c1ccccc1C(=O)NC(C)(C)C [Example 249, N-(tert-butyl)-2-{[(4-ethoxy-pyridin-3-yl)amino]sulfonyl} benzamide] |
| 15 | 15 | 135 | 12.5 | Cc1ccncc1NS(=O)(=O)c1ccccc1C(=O)NCc1ccc(F)c(F)c1 [Example 259, N-(3,4-difluorobenzyl)-2-{[(4-methylpyridin-3-yl)amino]sulfonyl}benzamide] |
| 15 | 8 | 2.8 | 1.6 | Cc1cncc(NS(=O)(=O)c2ccccc2C(=O)NCc2cc(Cl)cc(Cl)c2)c1 [Example 155, N-(3,5-dichlorobenzyl)-2-{[(5-methylpyridin-3-yl)amino]sulfonyl}benzamide] |
| 473 | 111 | > 1000 |  | CC(C)(CN1CCOCC1)NC(=O)c1ccccc1S(=O)(=O)Nc1cccnc1 [Example 33, N-(1,1-dimethyl-2-morpholin-4-ylethyl)-2-[(pyridin-3-ylamino)sulfonyl]benzamide] |
| 13 | 13 | 334 | 61.2 | CN(c1cccnc1)S(=O)(=O)c1ccccc1C(=O)NCC1CCCC1 [Example 332, N-(cyclopentylmethyl)-2-{[methyl(pyridin-3-yl)amino]sulfonyl}benzamide] |
| > 500 | > 500 | > 1000 |  | CC(C)(CO)NC(=O)c1ccccc1S(=O)(=O)Nc1cccnc1 [Example 39, N-(2-hydroxy-1,1-dimethylethyl)-2-[(pyridin-3-ylamino)sulfonyl]benzamide] |
| 36 | 17 | 116 |  | CN(CCc1ccccc1)C(=O)c1ccccc1S(=O)(=O)Nc1cccnc1 [Example 68, N-methyl-N-(2-phenylethyl)-2-[(pyridin-3-ylamino)sulfonyl]benzamide] |
| > 750 | 279 | > 1000 | 558 | CC(C)(C)OC(=O)N1CC2(CCN(C(=O)c3ccccc3S(=O)(=O)Nc3cccnc3)CC2)C1 [Example 10, tert-butyl 7-{2-[(pyridin-3-ylamino)sulfonyl]benzoyl}-2,7-diazaspiro[3.5]nonane-2-carboxylate] |
| 65 | 31 | 468 | 42.6 | Cc1cncc(NS(=O)(=O)c2ccccc2C(=O)N(C)C(C)C)c1 [Example 281, N-isopropyl-N-methyl-2-{[(5-methylpyridin-3-yl)amino]sulfonyl}benzamide] |
| 42 | 20 | 382 |  | COc1cccc(OC)c1CNC(=O)c1ccccc1S(=O)(=O)Nc1cccnc1 [Example 45, N-(2,6-dimethoxybenzyl)-2-[(pyridin-3-ylamino)sulfonyl]benzamide] |
| 73 | 34 | 209 | 76.2 | COc1cncc(NS(=O)(=O)c2ccccc2C(=O)NC(C)C2CC2)c1 (centres unmarked) [Example 311, N-(1-cyclopropylethyl)-2-{[(5-methoxypyridin-3-yl)amino]sulfonyl}benzamide] |
| 3 | 9 | 16 | < 1 | COc1cncc(NS(=O)(=O)c2ccccc2C(=O)NCCc2ccccc2C)c1 [Example 388, 2-{[(5-methoxypyridin-3-yl)amino]sulfonyl}-N-[2-(2-methylphenyl)ethyl]benzamide] |
| 82 | 49 | 263 | 58 | CN(Cc1ccc(F)c(F)c1)C(=O)c1ccccc1S(=O)(=O)Nc1cncc(F)c1 [Example 163, N-(3,4-difluorobenzyl)-2-{[(5-fluoropyridin-3-yl)amino]sulfonyl}-N-methylbenzamide] |
| 26 | 22 | 36.6 | 13.1 | CCCCCN(C)C(=O)c1ccccc1S(=O)(=O)Nc1cncc(C)c1 [Example 341, N-methyl-2-{[(5-methylpyridin-3-yl)amino]sulfonyl}-N-pentylbenzamide] |
| 11 | 6 | 12.7 | 10.5 | COc1cncc(NS(=O)(=O)c2ccccc2C(=O)NC(CO)Cc2ccc(Cl)cc2)c1 (centres unmarked) [Example 199, N-[1-(4-chlorobenzyl)-2-hydroxyethyl]-2-{[(5-methoxypyridin-3-yl)amino]sulfonyl}benzamide] |
| 18 | 9 | 66 | 11.7 | Cc1ccncc1NS(=O)(=O)c1ccccc1C(=O)NCc1ccc(F)c(Cl)c1 [Example 168, N-(3-chloro-4-fluorobenzyl)-2-{[(4-methylpyridin-3-yl)amino]sulfonyl}benzamide] |
| 18 | 16 | 104 | 9.9 | COc1cncc(NS(=O)(=O)c2ccccc2C(=O)N(C)CCOc2ccccc2)c1 [Example 173, 2-{[(5-methoxypyridin-3-yl)amino]sulfonyl}-N-methyl-N-(2-phenoxyethyl)benzamide] |
| 80 | 37 | 206 | 60.3 | Cc1cncc(NS(=O)(=O)c2ccccc2C(=O)N2CCCC(C)(C)C2)c1 [Example 343, 2-[(3,3-dimethylpiperidin-1-yl)carbonyl]-N-(5-methylpyridin-3-yl)benzenesulfonamide] |
| 52 | < 16 | 45.6 | 26.8 | COCCN(C(=O)c1ccccc1S(=O)(=O)Nc1cncc(OC)c1)C(C)C [Example 244, N-isopropyl-N-(2-methoxyethyl)-2-{[(5-methoxypyridin-3-yl)amino]sulfonyl}benzamide] |
| 21 | 18 | 118 | 17.2 | CCOc1ccncc1NS(=O)(=O)c1ccccc1C(=O)NCCC(C)C [Example 271, 2-{[(4-ethoxypyridin-3-yl)amino]sulfonyl}-N-(3-methylbutyl)benzamide] |
| 7 | 9 | 42.9 | 3.76 | COc1ccncc1NS(=O)(=O)c1ccccc1C(=O)NCCc1ccccc1C [Example 275, 2-{[(4-methoxypyridin-3-yl)amino]sulfonyl}-N-[2-(2-methylphenyl)ethyl]benzamide] |
| > 750 | > 750 | > 1000 |  | CN1CCN(C(=O)c2ccccc2S(=O)(=O)Nc2cccnc2)CC1 [Example 35, 2-[(4-methylpiperazin-1-yl)carbonyl]-N-pyridin-3-ylbenzenesulfonamide] |
| 31 | 16 | 70.4 | 22.6 | CCCCN(C)C(=O)c1ccccc1S(=O)(=O)Nc1cncc(C)c1 [Example 352, N-butyl-N-methyl-2-{[(5-methylpyridin-3-yl)amino]sulfonyl}benzamide] |
| 67 | 63 | 460 | 44.6 | O=C(NC1CCCCC1)c1ccccc1S(=O)(=O)Nc1cccnc1 [Example 8, N-cyclohexyl-2-[(pyridin-3-ylamino)sulfonyl]benzamide] |
| 59 | 28 | 210 | 221 | CC(C)CCNC(=O)c1ccccc1S(=O)(=O)N(C)c1cccnc1 [Example 323, N-(3-methylbutyl)-2-{[methyl(pyridin-3-yl)amino]sulfonyl}benzamide] |
| 66 | 14 | 355 | 47.3 | COc1cncc(NS(=O)(=O)c2ccccc2C(=O)NC2CCCC2)c1 [Example 214, N-cyclopentyl-2-{[(5-methoxypyridin-3-yl)amino]sulfonyl}benzamide] |
| > 750 | > 750 | > 1000 |  | O=C(c1ccccc1S(=O)(=O)Nc1cccnc1)N1CCC(O)CC1 [Example 28, 2-[(4-hydroxypiperidin-1-yl)carbonyl]-N-pyridin-3-ylbenzenesulfonamide] |
| 349 | 146 | 570 |  | COc1ccncc1NS(=O)(=O)c1ccccc1C(=O)N1CCCCC1 [Example 18, N-(4-methoxypyridin-3-yl)-2-(piperidin-1-ylcarbonyl)benzenesulfonamide] |
| 49 | 33 | 86.8 | 23.4 | CCCCCNC(=O)c1ccccc1S(=O)(=O)N(C)c1cncc(OC)c1 [Example 364, 2-{[(5-methoxypyridin-3-yl)(methyl)amino]sulfonyl}-N-pentylbenzamide] |
| 25 | 28 | 743 | 20.9 | O=C(NCc1ccc2c(c1)CCO2)c1ccccc1S(=O)(=O)Nc1cccnc1 [Example 82, N-(2,3-dihydro-1-benzofuran-5-ylmethyl)-2-[(pyridin-3-ylamino)sulfonyl]benzamide] |

| SMILES | IC50 [1] [nM] | IC50 [2] [nM] | Ki [3, 4] [nM] | Ki [3, 5] [nM] |
| --- | --- | --- | --- | --- |
| CCCCNC(=O)c1ccccc1S(=O)(=O)Nc1cncc(C)c1 [Example 31, N-butyl-2-{[(5-methylpyridin-3-yl)amino]sulfonyl}benzamide] | 38 | 23 | 70.1 |  |
